Several values for one entry are separate records, joined by “and”; a condition that tells them apart may be missing. Identical values can stand only once. Toxic doses and inconclusive results are not listed. The calls were made as follows: active = survival T/C of 150% or more; inactive = T/C below 125% in these data.
Test system: CD2F1 mice, L1210 leukemia ip, survival T/C
Test: NCI In Vivo Anticancer Drug Screen. Data for tumor model L1210 Leukemia (intraperitoneal) in CD2F1 (CDF1) mice
Settings: higher = longer survival
How it was run: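 Tumor-bearing mice (transplanted tumor) were split into treated and vehicle control groups, and the measured endpoint of each treated group was divided by that of its vehicle controls.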

[1] = endpoint: mean survival time, dose: 100.0 mg/kg/injection, schedule: Q01DX009 (ip), vehicle: saline with Tween-80
[2] = endpoint: mean survival time, dose: 200.0 mg/kg/injection, schedule: Q01DX009 (ip), vehicle: saline with Tween-80
[3] = endpoint: mean survival time, dose: 400.0 mg/kg/injection, schedule: Q01DX009 (ip), vehicle: saline with Tween-80
[4] = endpoint: mean survival time, dose: 50.0 mg/kg/injection, schedule: Q01DX009 (ip), vehicle: saline with Tween-80
[5] = endpoint: mean survival time, dose: 100.0 mg/kg/injection, schedule: Q01DX001 (ip), vehicle: saline with Tween-80
[6] = endpoint: mean survival time, dose: 200.0 mg/kg/injection, schedule: Q01DX001 (ip), vehicle: saline with Tween-80
[7] = endpoint: mean survival time, dose: 400.0 mg/kg/injection, schedule: Q01DX001 (ip), vehicle: saline with Tween-80
[8] = endpoint: mean survival time, dose: 100.0 mg/kg/injection, schedule: Q04DX003 (ip), vehicle: saline with Tween-80
[9] = endpoint: mean survival time, dose: 200.0 mg/kg/injection, schedule: Q04DX003 (ip), vehicle: saline with Tween-80
[10] = endpoint: mean survival time, dose: 400.0 mg/kg/injection, schedule: Q04DX003 (ip), vehicle: saline with Tween-80

Measured: T/C

CCOC(=O)C(C(=O)OCC)C(=O)c1cccc2c1ccc1ccccc12
inactive: endpoint: mean survival time, dose: 100.0 mg/kg/injection, schedule: Q01DX005 (ip), vehicle: saline with Tween-80 95 % of control | [1] 104 % of control | endpoint: mean survival time, dose: 200.0 mg/kg/injection, schedule: Q01DX005 (ip), vehicle: saline with Tween-80 95 % of control | [2] 93 % of control | endpoint: mean survival time, dose: 400.0 mg/kg/injection, schedule: Q01DX005 (ip), vehicle: saline with Tween-80 95 % of control | [3] 86 % of control

CC(CCC/C=C/CCCN(C)C(=N)N)CC(C)C1OC(=O)C(C)C(O)/C=C/C(C)C(O)C(C)C(O)C(C)C(O)CCCC(O)CC2(O)OC(CC(OC(=O)CC(=O)O)CC(O)CC(O)C(C)C(O)/C=C/C=C/C1C)CC(O)C2O (stereo not drawn)
inactive: endpoint: mean survival time, dose: 5.5 mg/kg/injection, schedule: Q01DX009 (ip), vehicle: saline 100 % of control

O=[N+]([O-])c1cccc(N=Nn2cccc2)c1
inactive: endpoint: mean survival time, dose: 25.0 mg/kg/injection, schedule: Q01DX009 (ip), vehicle: saline with Tween-80 86 % of control | [4] 106 % of control | [5] 98 % of control | [1] 102 % of control

CCC1(C)CCC2=C(CCC3C(C)(C(=O)O)CCCC23C)C1 (stereo not drawn)
inactive: [5] 96 % of control | [1] 93 % of control | [6] 91 % of control | [2] 91 % of control | [7] 96 % of control

COC1C(O)C(O)C(O)C(O)C1O (stereo not drawn)
inactive: endpoint: mean survival time, dose: 100.0 mg/kg/injection, schedule: Q04DX003 (ip), vehicle: saline 95 % of control | endpoint: mean survival time, dose: 200.0 mg/kg/injection, schedule: Q04DX003 (ip), vehicle: saline 92 % of control | endpoint: mean survival time, dose: 400.0 mg/kg/injection, schedule: Q04DX003 (ip), vehicle: saline 93 % of control

COc1ccc(C2(C)N=NC(=C(c3ccccc3)c3ccccc3)O2)cc1 (stereo not drawn)
inactive: [1] 97 % of control | [8] 91 % of control | [2] 86 % of control | [9] 91 % of control | [3] 86 % of control | [10] 93 % of control

CC(=O)Nc1ncc(CN2CCCCC2)s1
inactive: endpoint: mean survival time, dose: 100.0 mg/kg/injection, schedule: Q04DX002 (ip), vehicle: Klucel (hydroxypropylcellulose) (HPC) 100 % of control | endpoint: mean survival time, dose: 200.0 mg/kg/injection, schedule: Q04DX002 (ip), vehicle: Klucel (hydroxypropylcellulose) (HPC) 103 % of control

Cc1ccc(S(=O)(=O)Oc2cccc(C)c2)cc1
inactive: [1] 96 % of control | [8] 100 % of control | [2] 96 % of control | [9] 99 % of control | [3] 91 % of control | [10] 94 % of control

O=C(OCc1ccccc1)C1CCCN1C(=O)C(CSC(c1ccccc1)(c1ccccc1)c1ccccc1)NC(c1ccccc1)(c1ccccc1)c1ccccc1 (stereo not drawn)
inactive: endpoint: mean survival time, dose: 50.0 mg/kg/injection, schedule: Q01DX009 (ip), vehicle: saline 97 % of control | endpoint: mean survival time, dose: 100.0 mg/kg/injection, schedule: Q01DX009 (ip), vehicle: saline 97 % of control | endpoint: mean survival time, dose: 200.0 mg/kg/injection, schedule: Q01DX009 (ip), vehicle: saline 95 % of control | endpoint: mean survival time, dose: 400.0 mg/kg/injection, schedule: Q01DX009 (ip), vehicle: saline 95 % of control

O=C(COc1ccccc1)N(/N=C/c1ccccc1)C(=O)c1ccccc1
inactive: endpoint: mean survival time, dose: 100.0 mg/kg/injection, schedule: Q01DX009 (ip), vehicle: Klucel (hydroxypropylcellulose) (HPC) 96 % of control | endpoint: mean survival time, dose: 100.0 mg/kg/injection, schedule: Q04DX003 (ip), vehicle: Klucel (hydroxypropylcellulose) (HPC) 94 % of control | endpoint: mean survival time, dose: 200.0 mg/kg/injection, schedule: Q01DX009 (ip), vehicle: Klucel (hydroxypropylcellulose) (HPC) 96 % of control | endpoint: mean survival time, dose: 200.0 mg/kg/injection, schedule: Q04DX003 (ip), vehicle: Klucel (hydroxypropylcellulose) (HPC) 92 % of control | endpoint: mean survival time, dose: 400.0 mg/kg/injection, schedule: Q01DX009 (ip), vehicle: Klucel (hydroxypropylcellulose) (HPC) 89 % of control | endpoint: mean survival time, dose: 400.0 mg/kg/injection, schedule: Q04DX003 (ip), vehicle: Klucel (hydroxypropylcellulose) (HPC) 94 % of control

COc1nc(C(Cl)(Cl)Cl)c(Cl)c(OC)c1Cl
inactive: endpoint: median survival time, dose: 12.5 mg/kg/injection, schedule: Q01DX009 (ip), vehicle: Klucel (hydroxypropylcellulose) (HPC) 108 % of control | endpoint: median survival time, dose: 25.0 mg/kg/injection, schedule: Q01DX009 (ip), vehicle: Klucel (hydroxypropylcellulose) (HPC) 98 % of control and 103 % of control | endpoint: median survival time, dose: 50.0 mg/kg/injection, schedule: Q01DX005 (ip), vehicle: Klucel (hydroxypropylcellulose) (HPC) 105 % of control and 112 % of control | endpoint: median survival time, dose: 50.0 mg/kg/injection, schedule: Q01DX009 (ip), vehicle: Klucel (hydroxypropylcellulose) (HPC) 106 % of control and 107 % of control | endpoint: median survival time, dose: 67.0 mg/kg/injection, schedule: Q01DX005 (ip), vehicle: Klucel (hydroxypropylcellulose) (HPC) 119 % of control and 102 % of control | endpoint: median survival time, dose: 90.0 mg/kg/injection, schedule: Q01DX005 (ip), vehicle: Klucel (hydroxypropylcellulose) (HPC) 105 % of control | endpoint: median survival time, dose: 120.0 mg/kg/injection, schedule: Q01DX005 (ip), vehicle: Klucel (hydroxypropylcellulose) (HPC) 113 % of control | endpoint: median survival time, dose: 200.0 mg/kg/injection, schedule: Q01DX009 (ip), vehicle: Klucel (hydroxypropylcellulose) (HPC) 115 % of control and 120 % of control

Cn1c(=O)c2c(ncn2CCCNCC(O)c2ccc(O)c(O)c2)n(C)c1=O (stereo not drawn)
inactive: endpoint: mean survival time, dose: 12.5 mg/kg/injection, schedule: Q01DX005 (ip), vehicle: water 98 % of control | endpoint: mean survival time, dose: 25.0 mg/kg/injection, schedule: Q01DX005 (ip), vehicle: water 98 % of control | endpoint: mean survival time, dose: 50.0 mg/kg/injection, schedule: Q01DX005 (ip), vehicle: water 94 % of control | endpoint: mean survival time, dose: 100.0 mg/kg/injection, schedule: Q01DX005 (ip), vehicle: water 100 % of control

CON=C(/C=C\c1ccccc1)/C=C/c1ccccc1
inactive: [5] 102 % of control | [1] 103 % of control | [6] 98 % of control | [2] 101 % of control | [7] 93 % of control | [3] 97 % of control

Nc1ccc(Nc2ccccc2C(=O)O)cc1
inactive: [4] 95 % of control | [1] 103 % of control | [8] 105 % of control | [9] 97 % of control

Cc1cc(=O)[nH]cn1
inactive: endpoint: mean survival time, dose: 100.0 mg/kg/injection, schedule: Q04DX002 (ip), vehicle: saline 105 % of control | endpoint: mean survival time, dose: 200.0 mg/kg/injection, schedule: Q04DX002 (ip), vehicle: saline 105 % of control | endpoint: mean survival time, dose: 400.0 mg/kg/injection, schedule: Q04DX002 (ip), vehicle: saline 97 % of control

Cn1c(=O)[nH]c2c(nc(-c3ccccc3)n2C)c1=O
inactive: endpoint: mean survival time, dose: 12.5 mg/kg/injection, schedule: Q01DX005 (ip), vehicle: other 87 % of control | endpoint: mean survival time, dose: 25.0 mg/kg/injection, schedule: Q01DX005 (ip), vehicle: other 96 % of control | endpoint: mean survival time, dose: 50.0 mg/kg/injection, schedule: Q01DX005 (ip), vehicle: other 89 % of control | endpoint: mean survival time, dose: 100.0 mg/kg/injection, schedule: Q01DX005 (ip), vehicle: other 94 % of control

Cc1cc(O)cc(=O)o1
inactive: endpoint: mean survival time, dose: 200.0 mg/kg/injection, schedule: Q01DX001 (ip), vehicle: other 93 % of control | endpoint: mean survival time, dose: 400.0 mg/kg/injection, schedule: Q01DX001 (ip), vehicle: other 105 % of control

CCCCCCC(=O)CC(SCC)c1ccccc1Cl (stereo not drawn)
inactive: endpoint: median survival time, dose: 25.0 mg/kg/injection, schedule: Q01DX009 (ip), vehicle: saline with Tween-80 100 % of control | endpoint: median survival time, dose: 50.0 mg/kg/injection, schedule: Q01DX009 (ip), vehicle: saline with Tween-80 104 % of control | endpoint: median survival time, dose: 100.0 mg/kg/injection, schedule: Q01DX009 (ip), vehicle: saline with Tween-80 100 % of control | endpoint: median survival time, dose: 200.0 mg/kg/injection, schedule: Q01DX009 (ip), vehicle: saline with Tween-80 97 % of control | endpoint: median survival time, dose: 400.0 mg/kg/injection, schedule: Q01DX009 (ip), vehicle: saline with Tween-80 98 % of control

CC1(C)COC2(c3ccccc3)N1C(=C(Cl)Cl)OC(=O)C2(Cl)Cl (stereo not drawn)
inactive: endpoint: mean survival time, dose: 75.0 mg/kg/injection, schedule: Q01DX001 (ip), vehicle: saline with Tween-80 101 % of control | endpoint: mean survival time, dose: 150.0 mg/kg/injection, schedule: Q01DX001 (ip), vehicle: saline with Tween-80 90 % of control | endpoint: mean survival time, dose: 300.0 mg/kg/injection, schedule: Q01DX001 (ip), vehicle: saline with Tween-80 109 % of control

CC(C)C(O)(C(=O)O)C(C)O (stereo not drawn)
inactive: endpoint: mean survival time, dose: 12.5 mg/kg/injection, schedule: Q01DX009 (ip), vehicle: water 96 % of control | endpoint: mean survival time, dose: 25.0 mg/kg/injection, schedule: Q01DX009 (ip), vehicle: water 94 % of control | endpoint: mean survival time, dose: 50.0 mg/kg/injection, schedule: Q01DX009 (ip), vehicle: water 88 % of control | endpoint: mean survival time, dose: 100.0 mg/kg/injection, schedule: Q01DX009 (ip), vehicle: water 89 % of control

CCSC1CCS(=O)(=O)C1 (stereo not drawn)
inactive: [4] 93 % of control | [1] 93 % of control | [2] 97 % of control

CC1(C)N=C(N)N=C(N)N1c1cccc([N+](=O)[O-])c1
inactive: endpoint: mean survival time, dose: 100.0 mg/kg/injection, schedule: Q04DX002 (ip), vehicle: saline with Tween-80 96 % of control

CCOC(=O)CCC(NC(=O)c1ccc(N(C=O)CCOC=O)cc1)C(=O)OCC (stereo not drawn)
inactive: [8] 97 % of control | [9] 96 % of control | [10] 96 % of control

From PubChem BioAssay AID256 (DTP/NCI, 2004)
